This is an account of results in patent US8003659B2, “Macrocyclic serine protease inhibitors” (Indenix Pharmaceuticals, Inc., priority 2008, dated 2011).

A word on the IC50: it is the midpoint of a concentration-inhibition curve. As a reminder, the EC50 is the concentration giving half of the maximal effect. A word on the CC50: it is the concentration that lowers cell viability or growth by half. Higher therefore signals better tolerance by the cells.

One data set deals with T1, HCV NS3-NS4A protease (Hepatitis C virus genotype 1b, UniProt P26663).
T1 construct: made in house
T1 sequence (P26663 1027-1208): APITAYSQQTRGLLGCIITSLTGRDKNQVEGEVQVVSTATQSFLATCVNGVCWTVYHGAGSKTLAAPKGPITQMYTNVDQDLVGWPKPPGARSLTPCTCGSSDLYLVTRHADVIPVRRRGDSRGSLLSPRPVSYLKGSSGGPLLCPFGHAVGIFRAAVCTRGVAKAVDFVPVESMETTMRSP
Briefly: HCV Protease Assay (SensoLyte 620 HCV Protease Assay kit). The conditions noted are these: 1.2 nM HCV NS3-NS4A protease, 60 min at room temperature, 5% DMSO. It counts as biochemical. The method, boiled down:
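Protease at 1.2 nM, run with the SensoLyte 620 fluorogenic kit under supplier conditions, with compounds at several concentrations in buffer with 5% final DMSO. Reactions ran 60 min at room temperature before fluorescence reading; IC50 from four-parameter sigmoidal fit of percent inhibition.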

In data set [1] the test system is Huh-7 cells containing HCV Con1 subgenomic replicon (GS4.1 cells). Briefly: HCV Replicon Assay (NS4A ELISA). The settings on record: Hepatitis C virus, Huh-7, 72 hr, NS4A protein by ELISA. The data set is classed as cell-based. The procedure, abridged:
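GS4.1 cells (Huh-7 with HCV Con1 subgenomic replicon) given ten 2-fold compound dilutions (top 75 μM) or a single 15 μM dose in 0.5% DMSO for 72 h at 37 °C. NS4A measured by cell ELISA (A492); EC50 from four-parameter sigmoidal fit, single-dose results as % inhibition at 15 μM.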
A general note: Replicon systems follow genome replication, usually without infectious particles.

Data set [2] in a line: Cytotoxicity evaluation (Cell Titer 96 AQueous One Solution Cell Proliferation Assay). The data set is classed as cell-based. The settings on record: human; GS4.1 cells, cellular viability. The protocol:
(§1) For cytotoxicity evaluation, GS4.1 cells were treated with compounds as described above and cellular viability was monitored using the Cell Titer 96 AQueous One Solution Cell Proliferation Assay (Promega). CC50 values were determined from the % cytotoxicity versus concentration data with Tecan Magellan software as described above.

A further data set concerns genotype 1b replicon. Briefly: Antiviral activity in a genotype 1b replicon assay. The data set is classed as cell-based, HCV. The settings on record: Hepatitis C virus. The protocol:
General procedure: Huh-7 cells containing HCV Con1 subgenomic replicon (GS4.1 cells) were grown in Dulbecco's Modified Eagle Medium (DMEM) supplemented with 10% fetal bovine serum (FBS), 2 mM L-glutamine, 110 mg/L sodium pyruvate, 1× non-essential amino acids, 100 U/mL penicillin-streptomycin, and 0.5 mg/mL G418 (Invitrogen). For dose-response testing, the cells were seeded in 96-well plates at 7.5×10^3 cells/well in a volume of 50 μL, and incubated at 37° C./5% CO2. Three hours after plating, 50 μL of ten 2-fold serial dilutions of compounds (highest concentration, 75 μM) were added, and cell cultures were incubated at 37° C./5% CO2 in the presence of 0.5% DMSO. Alternatively, compounds were tested at a single concentration of 15 μM. In all cases, Huh-7 cells lacking the HCV replicon served as negative control. The cells were incubated in the presence of compounds for 72 hr after which they were monitored for expression of the NS4A protein by enzyme-linked immunosorbent assay (ELISA). For this, the plates were then fixed for 1 min with acetone/methanol (1:1, v/v), washed twice with phosphate-buffered saline (PBS), 0.1% Tween 20, blocked for 1 hr at room temperature with TNE buffer containing 10% FBS and then incubated for 2 hr at 37° C. with the anti-NS4A mouse monoclonal antibody A-236 (ViroGen) diluted in the same buffer. After washing three times with PBS, 0.1% Tween 20, the cells were incubated 1 hr at 37° C. with anti-mouse immunoglobulin G-peroxidase conjugate in TNE, 10% FBS. After washing as described above, the reaction was developed with O-phenylenediamine (Zymed). The reaction was stopped after 30 min with 2 NH2SO4, and absorbance was read at 492 nm using Sunrise Tecan spectrophotometer. EC50 values were determined from the % inhibition versus concentration data using a sigmoidal non-linear regression analysis based on four parameters with Tecan Magellan software. When screening at a single concentration, the results were expressed as % inhibition at 15 μM.
(§2) Compounds were tested in a genotype 1b replicon assay as described in Example 32 and the results are summarized in Table 6, wherein A represents a value smaller than 1 μM, and B represents a value between 1 μM to 10 μM, C represents a value between 10 μM to 75 μM and D represents a value greater than 75 μM.

A short description of data set [3]: Cytotoxicity (CC50) in the genotype 1b replicon assay. The data set is classed as cell-based. The conditions noted are these: human, genotype 1b replicon assay as described in Example 32. As to the method: as §1, §2
Data set [4] deals with HCV genotype 2a infectious virus. Briefly: HCV genotype 2a infectious virus assay. It counts as cell-based, HCV (strain JFH-1; genotype 2a). The settings on record: Hepatitis C virus. The protocol:
Compounds were tested in a HCV genotype 2a infectious virus assay and the results are summarized in Table 7, wherein A represents a value smaller than 1 μM, and B represents a value between 1 μM to 10 μM, C represents a value between 10 μM to 75 μM and D represents a value greater than 75 μM.
The HCV in vitro infection core ELISA assay measures the ability of a test compound to inhibit replication of an infectious HCV (strain JFH-1; genotype 2a) in cell culture. […] We have developed this model for determining the efficacy of antiviral compounds against an infectious virus in vitro using HCV producing cells (HPC), a proprietary Huh-7-derived cell sublineage capable of propagating the JFH-1 HCV virus. The readout of the assay is quantification of HCV core protein by ELISA 5 days post infection with JFH-1 virus and treatment with a test compound.
Ninety-six-well Corning Costar plates were seeded with HPC cells at a density of 3.0×10^3 cells per well in 50 μL of Huh-7 media. Compound stock solutions were made up freshly in Huh-7 media (DMEM (containing glucose, L-glutamine and sodium pyruvate), 10% FBS, 100 IU/mL penicillin, 100 μg/mL streptomycin, 2 mM GlutaMAX, 1% MEM non-essential amino acids) as 2× stock. Seven additional 3-fold drug dilutions were prepared from the 2× stocks in Huh-7 media. At least 4 hours after HPC cells were seeded, the media in the 96-well culture plates was aspirated and 50 μL of each drug dilution and 50 μL of JFH-1 HCV was added to each well.
At 16 hrs post treatment and infection, the virus inoculum was removed by aspiration. The cultures were treated at the same final concentrations of drug diluted to 1× in Huh-7 media to a final volume of 200 μL. Cells were incubated in the presence of drug for 4 additional days at 37° C./5% CO2.
Media was removed from the plates by aspiration. Cells were fixed with 250 μL 1:1 acetone:methanol for 90 seconds, washed once in PBS and then three times with 1×KPL wash solution. The assay plates were then blocked with 150 μL/well 10% FBS-TNE (50 mM Tris-HCl (pH 7.5; Sigma), 100 mM NaCl, 1 mM EDTA with 10% FBS) for 1 hr at room temperature. Cells were washed three times with 1×KPL wash solution and incubated with 100 μL/well anti-hepatitis C core mAb (1 mg/mL stock diluted 1:500 in 10% FBS-TNE) for 2 hours at 37° C. Cells were washed three times with 1×KPL wash solution and incubated with 100 μL/well HRP-goat anti-mouse antibody (diluted 1:2,500 in 10% FBS-TNE) for 1 hr at 37° C.
OPD solution was prepared using 1 OPD tablet+12 mL citrate/phosphate buffer (16 mM citric acid, 27 mM Na2HPO4) plus 5 μL 30% H2O2 per plate. Cells were washed three times with 1×KPL wash solution and developed with 100 μL/well OPD solution for 30 minutes in the dark at room temperature. The reaction was stopped with 100 μL/well of 2NH2SO4, and absorbance measured at A490 nm in a Victor^3 V 1420 multilabel counter (Perkin Elmer). The EC50 values for each compound were calculated from dose response curves from the resulting best-fit equations determined by Microsoft Excel and XLfit 4.1 software. The negative control for inhibition of virus replication was untreated HPC cells infected with the JFH-1 HCV virus strain. The negative ELISA control was untreated, uninfected HPC cells. The positive ELISA control was untreated HPC cells infected the JFH-1 HCV virus strain.

The subject of the next data set is mutant protease R155Q. Briefly: Resistance profile, mutant protease R155Q. It counts as biochemical, HCV. The conditions noted are these: ratio of inhibitory activity against mutant enzyme over non-mutant enzyme. As to the method: (§3) General procedure: Measurement of the inhibitory effect of compounds on HCV protease activity was performed with the SensoLyte™ 620 HCV Protease Assay kit from AnaSpec, Inc. (San Jose, Calif.) under conditions described by the supplier using 1.2 nM HCV NS3-NS4A protease, which was obtained according to Taremi et al. (Protein Science, 1998, 7, 2143-2149). The compounds were tested at a variety of concentrations in assay buffer containing a final DMSO concentration of 5%. Reactions were allowed to proceed for 60 min at room temperature and fluorescence measurements were recorded with a Tecan Infinity Spectrofluorimeter. The IC50 values were determined from the percent inhibition versus concentration data using a sigmoidal non-linear regression analysis based on four parameters with Tecan Magellan software.
(§4) Compounds were evaluated against three mutant proteases R155Q, A156S, and D168A, as summarized in Table 8, wherein A represents a value smaller than 1, and B represents a value between 1 to 10, and C represents a value greater than 10. The fold of change in inhibitory activity was determined by measuring the ratio of the inhibitory activity of a compound against a mutant enzyme over the inhibitory activity of the same compound against non-mutant enzyme. The inhibitory activity was determined using the procedure as described in Example 31.

The subject of a further data set is mutant protease A156S. Briefly: Resistance profile, mutant protease A156S. It counts as biochemical, HCV. The conditions noted are these: ratio of inhibitory activity against mutant enzyme over non-mutant enzyme. As to the method: as §3, §4
The subject of the next data set is mutant protease D168A. Briefly: Resistance profile, mutant protease D168A. It counts as biochemical, HCV. The conditions noted are these: ratio of inhibitory activity against mutant enzyme over non-mutant enzyme. The protocol: as §3, §4
Where [5] appears, read: genotype 1b replicon assay as described in Example 32, read-out: EC50.

Read-outs that look alike come from different tables or passages of the source. A value given as a limit tells only on which side of the number the result lay.

Consider `COc1ccc2c(O[C@H]3C[C@H]4C(=O)N(C)CCCC/C=C\[C@@H]5C[C@@]5(C(=O)NS(=O)(=O)C5(C)CC5)NC(=O)N4C3)cc(-c3nc(C(C)C)cs3)nc2c1C` [Compound 56b, (Z)-(4R,6S,15S,17S)-[17-[7-methoxy-8-methyl-2-(4-isopropylthiazol-2-yl)quinolin-4-yloxy]-13-N-methyl-2,14-dioxo-1,3,13-triazatricyclo[13.3.0.0]octadec-7-en-4-yl]carbonyl(1-methyl-cyclopropyl)sulfonamide], for which the IC50 at HCV NS3-NS4A protease was less than 1000 nM. Further, the EC50 in data set [1] was less than 1000 nM; in the data set on genotype 1b replicon (setting [5]), less than 1000 nM; in data set [4], 1000 to 10000 nM. The CC50 in data set [2] is greater than 75000 nM; in [3] it was 10000 to 75000 nM. Moreover, the “Fold-Change R155Q” value in the data set with mutant protease R155Q was “A (A represents a value smaller than 1)”. For the same compound, the “Fold-Change A156S” value with mutant protease A156S was “A (A represents a value smaller than 1)”. Also, the “Fold-Change D168A” value in the data set on mutant protease D168A was “C (C represents a value greater than 10)”.
For `COc1ccc2c(O[C@H]3C[C@H]4C(=O)N(C)CCCC/C=C\[C@@H]5C[C@@]5(C(=O)NS(=O)(=O)C5(C)CC5)NC(=O)N4C3)cc(-c3nc(C(C)C)cs3)nc2c1Cl` [Compound 56d, (Z)-(4R,6S,15S,17S)-[17-[8-chloro-7-methoxy-2-(4-isopropylthiazol-2-yl)quinolin-4-yloxy]-13-N-methyl-2,14-dioxo-1,3,13-triazatricyclo[13.3.0.0]octadec-7-en-4-yl]carbonyl(1-methyl-cyclopropyl)sulfonamide], the half-inhibitory concentration (IC50) against HCV NS3-NS4A protease is less than 1000 nM. Further, the EC50 (in data set [1]; in the data set on genotype 1b replicon; in data set [4]) was less than 1000 nM each time. The CC50 was greater than 75000 nM in data set [2] and 10000 to 75000 nM in [3] (GS4.1 cells). Besides, the “Fold-Change R155Q” value in the data set with mutant protease R155Q is listed as “A (A represents a value smaller than 1)”. The “Fold-Change A156S” value with mutant protease A156S is on record as “A (A represents a value smaller than 1)”. Further, in the data set on mutant protease D168A, the “Fold-Change D168A” value is reported as “C (C represents a value greater than 10)”.
`COc1ccc2c(O[C@H]3C[C@H]4C(=O)N(C)CCCC/C=C\[C@@H]5C[C@@]5(C(=O)NS(=O)(=O)C5CC5)NC(=O)N4C3)cc(-n3ccc(C(F)(F)F)n3)nc2c1Cl` [Compound 91e, (Z)-(4R,6S,15S,17S)-[17-[8-chloro-7-methoxy-2-(3-trifluoromethyl-1H-pyrazol-1-yl)quinolin-4-yloxy]-13-N-methyl-2,14-dioxo-1,3,13-triazatricyclo[13.3.0.0]octadec-7-ene-4-yl]carbonyl(cyclopropyl)sulfonamide] registered an IC50 on HCV NS3-NS4A protease of less than 1000 nM. Moreover, the EC50 (in [1]; in the data set with genotype 1b replicon (setting [5]); in data set [4]) was less than 1000 nM each time. Moreover, the CC50 was greater than 75000 nM in data set [2] and 10000 to 75000 nM in data set [3] (GS4.1 cells). In addition, the “Fold-Change R155Q” value in the data set on mutant protease R155Q was “A (A represents a value smaller than 1)”. In addition, the “Fold-Change A156S” value in the data set with mutant protease A156S was “A (A represents a value smaller than 1)”. Besides, the “Fold-Change D168A” value with mutant protease D168A is on record as “C (C represents a value greater than 10)”.
